Assay results: paper PMC2346451 (PLoS ONE, 2008)

How the values were obtained:
mouse TRPV4 (mTRPV4) = biological target: T1, mouse TRPV4 (mTRPV4) (Mus musculus, UniProt Q9EPK8); experiment: Whole-cell patch clamp of mouse TRPV4 expressed in HEK-293T cells; type: cell-based; design: key to Agonist efficacy: Ø - not activated
T1 construct: expressed in transfected cells; host or cells: HEK-293T
Description: (§1) Transformed human embryonic kidney-293 (HEK-293T) cells were grown in Dulbecco's modified Eagle's medium (DMEM)+F-12 supplemented with 10% fetal calf serum, and 1% penicillin/streptomycin in 5% CO2 at 37°C. Cells grown to 90% confluence in 35 mm Petri dishes were transiently transfected with plasmid DNA encoding a TRP channel construct (1 µg). Rat TRPV1 (rTRPV1) was cloned into an enhanced green fluorescent protein-containing vector (pTracer-CMV2; Invitrogen, Carlsbad, CA). Chicken TRPV1 (cTRPV1), the chicken rat TRPV1 chimera (crcTRPV1), rat TRPV2 (rTRPV2), mouse TRPV3 (mTRPV3), mouse TRPV4 (mTRPV4), rat TRPM8 (rTRPM8), and rat TRPA1 (rTRPA1), were cloned into pcDNA3 and co-transfected with enhanced green fluorescent protein (0.1 µg) to follow expression. The cTRPV1 and crcTRPV1 clones were kindly provided by Dr. David Julius. Recordings were carried out 24–36 hours after transfection. Cells were split via trypsin EDTA, plated on glass coverslips at 5–10% confluence, and used 2–3 hours later.
(§2) Electrophysiological experiments were performed using the whole-cell patch-clamp technique at room temperature. Modified Ringer's solution with low chloride and nominal calcium contained (in mM): 130 sodium hydroxide, 5 potassium chloride, 1 magnesium chloride, 10 sodium 4-(2-hydroxyethyl)-1-piperazineethanesulfonic acid, 10 2-(N-morpholino)ethanesulfonic acid, and 20 glucose (pH 7.4; 310 milli-osmolar). […] 2 mM calcium chloride was included in the external solution where noted. To activate TRPV1, the modified Ringer's solution was made at pH 5 (low pH solution) and the chloride concentration was kept to a minimum to prevent contamination of the TRPV1 currents with acid-activated chloride currents. For recordings from heterologously expressing cells, the internal pipette solution contained (in mM): 125 cesium-Methanesulfonate, 10 cesium (1.2-bis(o-aminophenoxy)ethane-N,N,N',N'-tetraacetic acid, 8 sodium chloride, 4 magnesium adenosine triphosphate, and 10 HEPES (pH 7.2; 290 mOSM; nominal free calcium concentrations). For TRPA1 and dorsal root ganglion recordings, the internal pipette solution contained (in mM): 110 cesium-Methanesulfonate, 0.5 cesium4BAPTA, 8 sodium chloride, 0.2 calcium chloride, 4 magnesium-ATP, 4 sodium-GTP, and 10 4-(2-hydroxyethyl)-1-piperazineethanesulfonic acid (pH 7.2; 290 mOSM; 100 nM free calcium internal). MaxChelator was used to calculate the free calcium concentration (http://www.stanford.edu/cpatton/maxc.html).
Recordings were obtained using an Axopatch 200B amplifier, Digidata 1322A analog-to-digital converter, and pClamp 8.01 software (Molecular Devices, Union City, CA). Data were low-pass filtered at 2 kHz and digitized at 5 kHz. Borosilicate glass pipettes (World Precision Instruments, Sarasota, FL) were typically 3 MΩ pipette resistance after fire polishing. Cell capacitance was measured for each cell, and access resistance compensated to ∼80%. Recordings were begun ∼5 minutes after initial rupture to ensure initial steady state conditions. Current-voltage (I-V) relations were obtained using a ramp protocol. Voltage ramps (400 ms) from −100 to +40 or +100 mV were applied every 1–2 seconds and the holding potential was either −70 mV or 0 mV (see Figure Legends). A 40 ms step was added at the beginning and end of the ramp (i.e. at −100 mV, +40 mV or +100 mV). Liquid junction potentials were not corrected. […]

[1] = system: dorsal root ganglion neurons; experiment: Whole-cell patch clamp of acutely isolated dorsal root ganglion neurons; type: cell-based, rat
Excerpt: Dorsal root ganglion neurons from all spinal levels were removed from postnatal day 12 to 20 Sprague Dawley rats and the nerve roots trimmed. Calcium- and magnesium-free (CMF) Hank's solution contained (in mM): 136.9 sodium chloride, 5.4 potassium chloride, 0.34 dibasic sodium orthophosphate, 0.44 monopotassium phosphate, 5.6 glucose, 5 4-(2-hydroxyethyl)-1-piperazineethanesulfonic acid, 0.005% phenol red, pH 7.4. CMF Hank's was used throughout the isolation and enzymatic treatments. The isolated ganglia were treated for 20 minutes at 37°C with 20 U/ml of papain (Worthington Biochemical, Lakewood, NJ) and 5 mM cysteine. The ganglia were then transferred to CMF Hank's with 3 mg/ml collagenase (type I; Worthington) and 4 mg/ml dispase (neutral type II; Roche Applied Science, Indianapolis, IN) for 20 minutes at 37°C. Individual neurons were dispersed by trituration through a fire-polished glass Pasteur pipette in 3 ml of media containing DMEM, 5% horse serum, 10% fetal bovine serum, 1% penicillin/streptomycin, and 100 ng/ml Nerve Growth Factor (7S subunit; Invitrogen). The neurons were preplated in tissue culture-treated Petri dishes for 1 hour when used for electrophysiology (3 hours for calcium imaging), and then plated on poly-L-lysine (1 mg/ml)-coated glass coverslips. Dorsal root ganglion neurons were allowed to settle for 1–2 hours at 37°C before patching or imaging over the next 6 hours.
as §2
Recordings were obtained using an Axopatch 200B amplifier, Digidata 1322A analog-to-digital converter, and pClamp 8.01 software (Molecular Devices, Union City, CA). Data were low-pass filtered at 2 kHz and digitized at 5 kHz. Borosilicate glass pipettes (World Precision Instruments, Sarasota, FL) were typically 3 MΩ pipette resistance after fire polishing. Cell capacitance was measured for each cell, and access resistance compensated to ∼80%. Recordings were begun ∼5 minutes after initial rupture to ensure initial steady state conditions. Current-voltage (I-V) relations were obtained using a ramp protocol. Voltage ramps (400 ms) from −100 to +40 or +100 mV were applied every 1–2 seconds and the holding potential was either −70 mV or 0 mV (see Figure Legends). A 40 ms step was added at the beginning and end of the ramp (i.e. at −100 mV, +40 mV or +100 mV). Liquid junction potentials were not corrected.

[2] = system: chicken rat TRPV1 chimera (crcTRPV1, CRC V2–V4); experiment: Whole-cell patch clamp of chicken rat TRPV1 chimera in HEK-293T cells; type: cell-based; settings: n = 6
Description: as §1
Electrophysiological experiments were performed using the whole-cell patch-clamp technique at room temperature. […]
Recordings were obtained using an Axopatch 200B amplifier, Digidata 1322A analog-to-digital converter, and pClamp 8.01 software (Molecular Devices, Union City, CA). […] Cell capacitance was measured for each cell, and access resistance compensated to ∼80%. […]

T1 sequence (Q9EPK8 whole entry): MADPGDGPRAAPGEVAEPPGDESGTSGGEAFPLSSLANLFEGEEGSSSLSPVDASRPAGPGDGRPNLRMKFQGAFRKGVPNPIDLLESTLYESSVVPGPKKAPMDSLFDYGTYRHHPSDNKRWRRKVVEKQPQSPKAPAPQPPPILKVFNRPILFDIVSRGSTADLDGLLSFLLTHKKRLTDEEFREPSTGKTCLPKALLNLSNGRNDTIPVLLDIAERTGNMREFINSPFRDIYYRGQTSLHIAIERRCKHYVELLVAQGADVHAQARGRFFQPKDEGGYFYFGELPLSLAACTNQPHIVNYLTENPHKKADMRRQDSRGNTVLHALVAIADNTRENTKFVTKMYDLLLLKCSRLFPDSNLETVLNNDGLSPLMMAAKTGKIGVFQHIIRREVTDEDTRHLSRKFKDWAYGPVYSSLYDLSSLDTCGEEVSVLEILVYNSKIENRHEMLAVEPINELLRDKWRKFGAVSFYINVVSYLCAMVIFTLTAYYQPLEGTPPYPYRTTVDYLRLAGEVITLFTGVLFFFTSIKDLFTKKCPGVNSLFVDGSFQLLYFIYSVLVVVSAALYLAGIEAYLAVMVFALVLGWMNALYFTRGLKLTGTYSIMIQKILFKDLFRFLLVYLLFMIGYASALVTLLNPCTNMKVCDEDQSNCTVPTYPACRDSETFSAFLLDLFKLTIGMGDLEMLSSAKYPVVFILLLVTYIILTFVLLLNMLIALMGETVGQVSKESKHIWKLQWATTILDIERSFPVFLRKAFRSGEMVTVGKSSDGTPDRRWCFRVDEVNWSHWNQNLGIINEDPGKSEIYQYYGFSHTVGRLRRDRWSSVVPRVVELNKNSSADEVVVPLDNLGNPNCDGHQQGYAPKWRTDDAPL

## CC(C)=CCCC(C)=CC=O [citral, 3,7-dimethyl-2,6-octadienal]
Mouse TRPV4 (mTRPV4)
  Agonist efficacy: Ø
Mouse TRPV4 (mTRPV4); 4α-phorbol-12, 13-didecanoate-evoked
  Reversibility of citral inhibition of agonist-evoked current: rapidly reversed
Mouse TRPV4 (mTRPV4); 4α-phorbol-12, 13-didecanoate-induced, n = 9
  Effect of citral addition on agonist-induced current: not increased
Mouse TRPV4 (mTRPV4); citral block of 4α-phorbol-12, 13-didecanoate-evoked current
  Hill coefficient (inhibition): 0.9
Mouse TRPV4 (mTRPV4); read-out: Inhibition KD, app
  Kd: 32 µM
[1]; 1 µM capsaicin
  Block of TRPV1-like currents evoked by capsaicin: 94%
[1]; 1 mM citral
  Effect on fast inward current (primarily voltage-gated sodium channels): partially blocked
[1]; 1 mM citral, n = 8
  Increase of outward currents: 2.7±0.5 fold
[1]; 5 minutes after washout, n = 8
  Capsaicin response recovered after citral washout: 3±1.5%
[1]; capsaicin activation, n = 17
  Potentiation of TRPV1-like current prior to inhibition: 1.1±0.03 fold
[1]; citral at pH 5
  Initial (constitutive) outward current inhibited: 79%
[1]; pH 5
  Block of TRPV1-like currents evoked by pH 5 solution: 100%
[1]; pH 5 activation, n = 20
  Potentiation of TRPV1-like current prior to inhibition: 1.5±0.1 fold
[2]
  Activation of CRC V2–V4 chimera currents: restored citral activation
